Test results reported in PubChem BioAssay (NCI).
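Method: 48-hour compound exposure of cells in 96-well plates, five concentrations, linear interpolation of endpoints. TGI denotes the concentration required for complete inhibition of growth.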

How the values were obtained:
Test in all cases: NCI anticancer screen, dose series, 48 h
HT29 colon = tested on: HT29 colon
HCT-15 colon = tested on: HCT-15 colon
NCI/ADR-RES ovarian = tested on: NCI/ADR-RES ovarian
DU-145 prostate = tested on: DU-145 prostate
OVCAR-3 ovarian = tested on: OVCAR-3 ovarian
UACC-257 melanoma = tested on: UACC-257 melanoma
U251 CNS = tested on: U251 CNS
A498 renal = tested on: A498 renal
HCC-2998 colon = tested on: HCC-2998 colon
UACC-62 melanoma = tested on: UACC-62 melanoma
EKVX NSCLC = tested on: EKVX NSCLC
SK-MEL-2 melanoma = tested on: SK-MEL-2 melanoma
SW-620 colon = tested on: SW-620 colon
CAKI-1 renal = tested on: CAKI-1 renal
MCF7 breast = tested on: MCF7 breast
CCRF-CEM leukemia = tested on: CCRF-CEM leukemia
MDA-N = tested on: MDA-N
OVCAR-5 ovarian = tested on: OVCAR-5 ovarian
SK-OV-3 ovarian = tested on: SK-OV-3 ovarian
OVCAR-4 ovarian = tested on: OVCAR-4 ovarian
LOX IMVI melanoma = tested on: LOX IMVI melanoma
SNB-75 CNS = tested on: SNB-75 CNS
SNB-19 CNS = tested on: SNB-19 CNS
SK-MEL-28 melanoma = tested on: SK-MEL-28 melanoma
OVCAR-8 ovarian = tested on: OVCAR-8 ovarian
MOLT-4 leukemia = tested on: MOLT-4 leukemia
RPMI-8226 leukemia = tested on: RPMI-8226 leukemia
RXF 393 renal = tested on: RXF 393 renal
MALME-3M melanoma = tested on: MALME-3M melanoma
SR leukemia = tested on: SR leukemia
HCT-116 colon = tested on: HCT-116 colon
SF-268 CNS = tested on: SF-268 CNS
SF-295 CNS = tested on: SF-295 CNS
UO-31 renal = tested on: UO-31 renal
T-47D breast = tested on: T-47D breast
K-562 leukemia = tested on: K-562 leukemia
PC-3 prostate = tested on: PC-3 prostate
NCI-H226 lung = tested on: NCI-H226 lung
IGROV1 ovarian = tested on: IGROV1 ovarian
M14 melanoma = tested on: M14 melanoma
KM12 colon = tested on: KM12 colon
NCI-H522 lung = tested on: NCI-H522 lung
BT-549 breast = tested on: BT-549 breast
COLO 205 colon = tested on: COLO 205 colon
HOP-62 NSCLC = tested on: HOP-62 NSCLC
ACHN renal = tested on: ACHN renal
SN12C renal = tested on: SN12C renal
SK-MEL-5 melanoma = tested on: SK-MEL-5 melanoma
TK-10 renal = tested on: TK-10 renal
MDA-MB-231 breast = tested on: MDA-MB-231 breast
HS 578T breast = tested on: HS 578T breast
NCI-H460 lung = tested on: NCI-H460 lung
786-0 renal = tested on: 786-0 renal
A549 NSCLC = tested on: A549 NSCLC
MDA-MB-435 = tested on: MDA-MB-435
NCI-H23 lung = tested on: NCI-H23 lung
HL-60(TB) leukemia = tested on: HL-60(TB) leukemia
SF-539 CNS = tested on: SF-539 CNS
HOP-92 NSCLC = tested on: HOP-92 NSCLC

Measured: TGI

NNC1=Nc2ccc(Cl)cc2C(=S)N2CSCC12 (stereo not given)
not listed: NCI-H23 lung | HL-60(TB) leukemia | SF-539 CNS | HOP-92 NSCLC
> 100 µM: all other assays above

COC(=O)C12C3C4(C(=O)OC)C1C1(C(=O)OC)C2C3(C(=O)OC)C41C(=O)N(C(C)C)C(C)C (stereo not given)
not listed: SK-OV-3 ovarian | RPMI-8226 leukemia | MALME-3M melanoma | NCI-H226 lung
> 100 µM: all other assays above
